{"source": "patent US20240398701A1", "about": "“MANUFACTURING METHODS FOR GASTRIC RESIDENCE SYSTEMS” (Lyndra Therapeutics, Inc., priority 2023, published 2024)", "assay": "Time-dependent behaviour in simulated gastric fluid over seven days", "format": "physicochemical", "text": "In some embodiments, a gastric residence system may include one or more time-dependent disintegrating matrices instead of or in addition to one or more enteric disintegrating matrices. A time-dependent disintegrating matrix may include one or more time-dependent polymers or linkers, that is, polymers that degrade in a time-dependent manner in the gastric environment. […] Thus, a polymer that degrades in a time-dependent manner can be readily prepared by mixing Plastoid B and triacetin; the degradation time of the Plastoid B-triacetin mixture can be extended by increasing the amount of Plastoid B used in the mixture (that is, using less triacetin in the mixture), while the degradation time can be decreased by decreasing the amount of Plastoid B used in the mixture (that is, using more triacetin in the mixture)."}
{"smiles": "CC(=O)OCC(COC(C)=O)OC(C)=O", "note": "[triacetin]", "values": [{"measurement": "release from a polymer formulation", "result": "releases from a polymer formulation in a time-dependent manner"}]}
